The values that follow come from US11510924B2, “Deuterated pharmaceutical compositions and methods of treating cardiovascular diseases” (priority 2017, dated 2022).

One data set deals with patient. Put plainly: Clinical observation of heart rate in patients treated for other indications. To be noted: vertigo patient, after administering betahistine.
The next data set concerns volunteer subjects. Briefly: Heart rate effect of API combinations in volunteer subjects (Examples 1-3). To be noted: added API in combination with aminophylline and clenbuterol; small group of volunteer subjects.
A further data set concerns bradycardia patients. Briefly: API combinations tested on bradycardia patients (Examples 1-3). In kind it is in vivo, human. The note with it: observed on some patients. Here is the method:
During the testing of the 4-API combination on bradycardia patients, a few adverse side effects were observed on some patients. […] Therefore, a further study was conducted to determine how to avoid or reduce such side effects. […] To confirm this finding, clenbuterol was replaced by albuterol in the 4-API combination, which has a similar secondary therapeutic effect on heart rate. […] Daily electrocardiograms were used to monitor the bradycardia patients. […] With this improvement, the effectiveness of the treatment on bradycardia patients was retained while the undesired side effects were minimized or eliminated.

Experimental for volunteer subjects: To test this hypothesis, an experiment was conducted, where a combination of aminophylline and clenbuterol was administered to a small group of volunteer subjects. […] For each subject in this example, an electrocardiogram (ECG) was used to monitor heart rate and A-V conduction abnormalities.
To further improve the effect of the aminophylline and clenbuterol combination on the heart rate, various combinations with active pharmaceutical ingredients were investigated. Without being bound by theory, the hypothesis in this experiment was to utilize a combination of APIs with similar mechanism of action or with the same side effect (a secondary therapeutical effects) on heart as aminophylline and clenbuterol. Oryzanol, nicotinamide, or anisodamine in combination with aminophylline and clenbuterol was tested on a small group of volunteer subjects.
Nifedipine (a calcium channel blocker) was then selected and tested.
A combination of betahistine with aminophylline, clenbuterol, and nifedipine was then prepared and tested on a small group of healthy volunteer subjects.

Take `CNCCc1ccccn1` [betahistine]: in the data set with patient, the “effect on heart rate” value is listed as “noticeably increased”.
Consider `CN1[C@H]2C[C@H](OC(=O)[C@H](CO)c3ccccc3)C[C@@H]1[C@@H](O)C2` [anisodamine], for which the “effect on heart rate compared with aminophylline and clenbuterol combination (Example 1)” value in the data set with volunteer subjects was “no further improvement”.
Consider `NC(=O)c1cccnc1` [nicotinamide], for which the “effect on heart rate compared with aminophylline and clenbuterol combination (Example 1)” value with volunteer subjects is “no further improvement”.
In the case of Oryzanol, the “effect on heart rate compared with aminophylline and clenbuterol combination (Example 1)” value with volunteer subjects is listed as “no further improvement”.
For `CC(C)(C)NCC(O)c1cc(Cl)c(N)c(Cl)c1` (centres unmarked) [clenbuterol], the adverse side effects entry in the data set on bradycardia patients is given as “these side effects were related to clenbuterol”.
